In patent US7087762B2, “Long-lasting antimicrobial reaction product of allantoin and formaldehyde containing a low level of free formaldehyde” (ISP Investments Inc., priority 2002, dated 2006):

What was measured:
[1] = tested on: AN (Aspergillus niger); experiment: Preservative challenge test, screening emulsion; type: cell-based
Description: (§1) A typical cosmetic emulsion was prepared for microbiological challenge testing and predetermined admixtures of a methylol compound and IPBC were added at various use levels. The emulsion thus prepared had the following composition:
(§2) To prepare the emulsion, Phases A and B were heated separately to 75°–80° C. Phase A then was added to Phase B with mixing. The mixture then was cooled to 55°–60° C. At this point the desired amount of the preservative admixture was added and the product was cooled to 50° C. while stirring. The citric acid solution then was added to adjust the pH and the mixture was stirred until a temperature of 30° C. was reached.
(§3) The challenge tests were carried out using the following microorganisms: SA, ECOLI, PSA, PC, AN and CAN, in this manner. 50 g aliquots of the test emulsion containing various amounts of the preservative admixture were inoculated with approximately 10^7–10^8 of the challenge organisms. The test samples then were stirred to disperse the challenge inoculum. The samples were incubated and assayed at 48 hours, 7, 14, 21 and 28 days. The assays were performed on 1 g of the test sample by serially diluting 10^1 to 10^6 of the original concentration. The plating medium for bacteria was Letheen agar and for fungi it was low pH Mycophil agar with Tween 20. Each plated sample was incubated for 48 hours at 37° C. for bacteria, 5 days at 25° C. for mold, and 3 days at 25° C. for fungi. After incubation, readings of the number of colonies per milliliter (cfu/ml) were made. At 21 days the test product was reinoculated with half of the original inoculum.

[2] = tested on: PSA (Pseudomonas aeruginosa); experiment: Preservative challenge test, screening emulsion; type: cell-based
Description: as §1, §2, §3

[3] = tested on: C. Albican ATTC1023; experiment: Activity against yeast and mold, 0.3% test solutions; type: cell-based, Candida albicans; design: key: + Growth; − No Growth
Text: Activity against yeast and mold:

[4] = tested on: AN (Aspergillus niger); experiment: Preservative challenge test, nonionic emulsion; type: cell-based
Description: as §1, §3

[5] = tested on: PSA (Pseudomonas aeruginosa); experiment: Preservative challenge test, nonionic emulsion; type: cell-based
Description: as §1, §3

O=C1C(N(CO)C(=O)NCO)N(CO)C(=O)N1CO (stereo not shown) [Germall II]
cfu/ml, 48 hrs ([1]; 250 ppm): 50,000 cfu/ml
cfu/ml, 7 days ([1]; 250 ppm): <10 cfu/ml
cfu/ml, 14 days ([1]; 250 ppm): <10 cfu/ml
cfu/ml, 21 days ([1]; 250 ppm): <10 cfu/ml
cfu/ml, 28 days ([1]; 250 ppm): 100 cfu/ml
cfu/ml, 48 hrs ([1]; 500 ppm): 40 cfu/ml
cfu/ml, 7 days ([1]; 500 ppm): <10 cfu/ml
cfu/ml, 14 days ([1]; 500 ppm): <10 cfu/ml
cfu/ml, 21 days ([1]; 500 ppm): <10 cfu/ml
cfu/ml, 28 days ([1]; 500 ppm): <10 cfu/ml
cfu/ml, 48 hrs ([1]; 1000 ppm): <10 cfu/ml
cfu/ml, 7 days ([1]; 1000 ppm): <10 cfu/ml
cfu/ml, 14 days ([1]; 1000 ppm): <10 cfu/ml
cfu/ml, 21 days ([1]; 1000 ppm): <10 cfu/ml
cfu/ml, 28 days ([1]; 1000 ppm): <10 cfu/ml
cfu/ml, 48 hrs ([1]; 2000 ppm): <10 cfu/ml
cfu/ml, 7 days ([1]; 2000 ppm): <10 cfu/ml
cfu/ml, 14 days ([1]; 2000 ppm): <10 cfu/ml
cfu/ml, 21 days ([1]; 2000 ppm): <10 cfu/ml
cfu/ml, 28 days ([1]; 2000 ppm): <10 cfu/ml
cfu/ml, 48 hrs ([2]; 250 ppm): <10 cfu/ml
cfu/ml, 7 days ([2]; 250 ppm): <10 cfu/ml
cfu/ml, 14 days ([2]; 250 ppm): <10 cfu/ml
cfu/ml, 21 days ([2]; 250 ppm): <10 cfu/ml
cfu/ml, 28 days ([2]; 250 ppm): <10 cfu/ml
cfu/ml, 48 hrs ([2]; 500 ppm): <10 cfu/ml
cfu/ml, 7 days ([2]; 500 ppm): <10 cfu/ml
cfu/ml, 14 days ([2]; 500 ppm): <10 cfu/ml
cfu/ml, 21 days ([2]; 500 ppm): <10 cfu/ml
cfu/ml, 28 days ([2]; 500 ppm): <10 cfu/ml
cfu/ml, 48 hrs ([2]; 1000 ppm): <10 cfu/ml
cfu/ml, 7 days ([2]; 1000 ppm): <10 cfu/ml
cfu/ml, 14 days ([2]; 1000 ppm): <10 cfu/ml
cfu/ml, 21 days ([2]; 1000 ppm): <10 cfu/ml
cfu/ml, 28 days ([2]; 1000 ppm): <10 cfu/ml
cfu/ml, 48 hrs ([2]; 2000 ppm): <10 cfu/ml
cfu/ml, 7 days ([2]; 2000 ppm): <10 cfu/ml
cfu/ml, 14 days ([2]; 2000 ppm): <10 cfu/ml
cfu/ml, 21 days ([2]; 2000 ppm): <10 cfu/ml
cfu/ml, 28 days ([2]; 2000 ppm): <10 cfu/ml
Growth, C. Albican ATTC1023 [3]: −
cfu/ml, 48 hrs ([4]; 2000 ppm): <10 cfu/ml
cfu/ml, 7 days ([4]; 2000 ppm): <10 cfu/ml
cfu/ml, 14 days ([4]; 2000 ppm): <10 cfu/ml
cfu/ml, 21 days ([4]; 2000 ppm): <10 cfu/ml
cfu/ml, 28 days ([4]; 2000 ppm): <10 cfu/ml
cfu/ml, 48 hrs ([4]; 4000 ppm): <10 cfu/ml
cfu/ml, 7 days ([4]; 4000 ppm): <10 cfu/ml
cfu/ml, 14 days ([4]; 4000 ppm): <10 cfu/ml
cfu/ml, 21 days ([4]; 4000 ppm): <10 cfu/ml
cfu/ml, 28 days ([4]; 4000 ppm): <10 cfu/ml
cfu/ml, 48 hrs ([5]; 2000 ppm): <10 cfu/ml
cfu/ml, 7 days ([5]; 2000 ppm): <10 cfu/ml
cfu/ml, 14 days ([5]; 2000 ppm): <10 cfu/ml
cfu/ml, 21 days ([5]; 2000 ppm): <10 cfu/ml
cfu/ml, 28 days ([5]; 2000 ppm): <10 cfu/ml
cfu/ml, 48 hrs ([5]; 4000 ppm): <10 cfu/ml
cfu/ml, 7 days ([5]; 4000 ppm): <10 cfu/ml
cfu/ml, 14 days ([5]; 4000 ppm): <10 cfu/ml
cfu/ml, 21 days ([5]; 4000 ppm): <10 cfu/ml
cfu/ml, 28 days ([5]; 4000 ppm): <10 cfu/ml
